# Data as given in paper PMC12210654, “Palazestrant, a novel oral Complete Estrogen Receptor Antagonist (CERAN) and Selective Estrogen Receptor Degrader (SERD), in patients with ER+/HER2− advanced or metastatic breast cancer: phase 1/2 study results” (Breast Cancer Research : BCR, 2025).
# “Also recorded” adds a separate entry of the source.
# Experiments:
# [1] = Plasma pharmacokinetics, single and multiple dose, noncompartmental; format: in vivo, human; conditions: for AUC(0-t): steady-state geometric mean AUC0–24
# Experimental: All DLT analyses (phase 1a) were performed in patients enrolled in the study during cycle 1 and who either received 75% of the planned palazestrant doses or experienced a DLT during cycle 1. All PK analyses were performed in patients who received at least 1 dose of palazestrant and had adequate postbaseline PK samples for characterization of PK parameters. All safety analyses were performed and PFS assessed in patients who received at least 1 dose of palazestrant. Clinical response (CR or PR) was assessed in patients who received at least 1 cycle of palazestrant, had measurable disease at baseline, and had at least 1 postbaseline tumor assessment. CBR was assessed in patients who received at least 1 cycle of palazestrant, had at least 1 postbaseline tumor assessment, and started their first dose at least 24 weeks before data cutoff. Patients who discontinued study treatment without radiographic progression within 24 weeks from the first dose were not included in the CBR analysis. PK parameters were estimated using conventional noncompartmental methods. For CBR, estimates were accompanied by 2-sided 95% confidence intervals (95% CIs). For PFS, Kaplan–Meier analyses were used to determine medians, event-free rates, and 95% CIs. For all other outcomes, categorical data were analyzed using frequencies and percentages, and continuous data were analyzed using means (standard deviation) or medians (range), as appropriate.
# Fig. 3 Steady-State Plasma Concentration–Time Profiles for Palazestrant (30 to 300 mg QD; Phase 1a/1b/2 data). Palazestrant was administered once daily at the indicated dose. Plasma samples were collected on cycle 2, day 1, at the indicated timepoints following administration to determine plasma drug concentration. Data presented are arithmetic mean and standard deviation; the heavy dashed black line represents the target (efficacious) exposure based on estradiol-supplemented preclinical models (Cmin: 226 ng/mL). Cmin, minimum plasma concentration; QD, once daily
# Ki67 = Ki67 immunohistochemistry of tumor samples; format: in vivo, human; conditions: cycle 3 day 1 (N = 12), all dose levels; baseline 29.2% (N = 18); P = 0.041
# Experimental: (§1) All immunohistochemistry analyses from tumor samples were performed at ICON Central Laboratories (Farmingdale, NY, USA) using the Ventana® BenchMark ULTRA™ automated staining instrument (Oro Valley, AZ, USA). Positive- and negative-control tissue and negative reagent controls were run for each marker, as well as low-ER controls for each run. Estrogen receptor levels were estimated as the number of positive tumor nuclei divided by the total number of tumor nuclei, expressed as a percentage for each receptor type. Evaluation of Ki67 was performed in accordance with Ki67 Working Group recommendations: 1) only nuclear staining was assessed as positive; 2) in cases of tumor heterogeneity (hot spots), 2 counts were performed and the average was reported; and 3) lymphocyte-rich areas were avoided when possible. Presence of activating ESR1 mutations (amino acid regions 370–381, 460–473, and 529–538) and their mutant allele fractions (MAFs) were determined in cell-free DNA (cfDNA), collected at baseline and at 8 weeks on treatment using the SafeSEQ Breast Cancer Panel (Sysmex Inostics, Baltimore, MD, USA).
# (§2) In patients who underwent biomarker testing, samples collected on cycle 3 day 1 of treatment across all dose levels were compared to baseline samples to assess changes during treatment. […]
# ERα = ERα immunohistochemistry (Allred score) of tumor samples; format: in vivo, human; conditions: cycle 3 day 1 (N = 12), all dose levels; baseline 6.67 (N = 18); P = 0.13
# Experimental: as §1, §2
# ESR1 = ESR1 mutations in cell-free DNA (SafeSEQ Breast Cancer Panel); format: in vivo, human
# Experimental: as §1
# In patients who underwent biomarker testing, samples collected on cycle 3 day 1 of treatment across all dose levels were compared to baseline samples to assess changes during treatment. […] Additionally, the number of endocrine resistance-associated ESR1-variant mutations (Y537S, Y537 N/C, L536H/P/R, and D538G) were reduced from 106 mutations detected at baseline (in 64 patients with detectable mutations at baseline) to 37 mutations (in 21 patients) after 2 treatment cycles of palazestrant treatment (Supplemental Fig. 2 C).
# 14 Supplemental Figure 2. Biomarker analyses following treatment with palazestrant.
# 15 Quantitative analyses were performed on patient tissue and blood samples collected at baseline and
# 16 cycle 3 day 1 of palazestrant treatment.
# 17 decreased after treatment with palazestrant compared (P=.041). B) ER Allred scores were decreased
# 18 after treatment with palazestrant (P=.13). C) Sankey diagram showing the number of mutations detected
# 19 in cfDNA for each ESR1 variant before and after treatment with palazestrant. N = number of patients in
# 20 the analysis; n= number of mutations.
# 21 49 (77%) had at least one mutation become “Not detected” at C3D1.
# 22 ESR1 mutation detected at C1D1, 43 (67%) had all their detected mutation(s) become “Not detected” at […]
# ER = test system: ER; parameters: method as in ref 22 = [22]; 22. Hamilton E, Meisel J, Alemany C, Borges V, Lin NU, Wesolowski R, et al. Preliminary phase 1/2 results from OP-1250-001, a study of OP-1250, an oral CERAN/SERD, in patients with advanced and/or met; conditions: based on estradiol-supplemented preclinical models; cited from earlier work
# [2] = test system: ESR1 wild-type and mutated human breast cancers; conditions: cited from earlier work
# [3] = parameters: method as in PMID 38102750; conditions: preclinical; cited from earlier work
# [4] = of 64 patients with an ESR1 mutation detected at C1D1
smiles,measurement,setting,value
"CCCN1CC(Oc2ccc([C@@H]3c4[nH]c5ccccc5c4C[C@@H](C)N3CC(C)(C)F)cc2)C1 [palazestrant, Palazestrant]",steady-state plasma concentrations versus predicted efficacy threshold (226 ng/mL),[1]; doses of ≥ 60 mg/day (60 and 120 mg/day),reached the predicted efficacy threshold; also recorded: above the predicted efficacy threshold
same,AUC(0-t),"[1]; human, in vivo, 60 mg",4030 ng·h/mL
same,AUC(0-t),"[1]; human, in vivo, 120 mg",9210 ng·h/mL
same,half-life,"[1]; human, in vivo, 120 mg, terminal half-life",192 h
same,bioavailability,"[1]; human, in vivo, po",readily bioavailable
same,distribution,[1]; in vivo,extensive tissue distribution
same,dose proportionality of exposure,[1]; in vivo,dose-proportional exposure
same,elimination,[1]; in vivo,biphasic elimination
same,Ki67 levels on treatment,Ki67,20.4%
same,ERα Allred score on treatment,ERα,5.17
same,patients with detectable ESR1-variant mutations on treatment,"ESR1; after 2 treatment cycles, 64 patients at baseline",21 patients
same,number of endocrine resistance-associated ESR1-variant mutations detected on treatment,"ESR1; after 2 treatment cycles, 106 mutations at baseline",37 mutations
same,patients with all detected ESR1 mutation(s) become Not detected at C3D1,ESR1; [4],67%
same,patients with at least one ESR1 mutation become Not detected at C3D1,ESR1; [4],77%
same,"predicted efficacy threshold, target (efficacious) exposure, Cmin",ER,226 ng/mL
same,tumor shrinkage compared with fulvestrant and tamoxifen,"[2]; preclinical xenograft models, ESR1 wild-type and mutated",greater tumor shrinkage
same,preclinical antitumor activity relative to fulvestrant and elacestrant,[2]; regardless of ESR1 mutation status,superior
same,pharmacokinetics relative to fulvestrant and elacestrant,[3],superior pharmacokinetics
